In patent US20240408222A1, “COMPOUNDS, PHARMACEUTICAL COMPOSITIONS, AND METHODS FOR THE TREATMENT, PREVENTION, OR MANAGEMENT OF HYPERPRO[…]” (VINCERX PHARMA GMBH, priority 2021, published 2024):

What was measured:
[1] = in vivo; settings: male, rat, plasma, iv
Description: Male rats (n=3) were given an intravenous 0.5 or 2.0 mg/kg bolus dose of test article dissolved in plasma with 1% DMSO and 2% ethanol (C30 only). Serial blood samples were collected up to 24 hours post-dose. Plasma was harvested from blood samples and stored frozen until sample analysis. Test article plasma concentrations were analyzed by LC/MS/MS.

[2] = system: 786-O; assay: Cytotoxicity in vitro (MTT) in presence/absence of elastase; assay type: cell-based, human; settings: 72 h
Description: (§1) Cultivation of cells was performed according to standard procedures with the media recommended by the provider. The cells, in a total volume of 100 μL, were seeded in a 96-well plate with a white bottom (#3610). After a 24 h incubation period at 37° C. and […], the medium was exchanged by adding 90 μL fresh medium. The treatment started by adding the test compound in 10 μL of culture medium to the cells in triplicates. Concentrations ranging from 10^−5 M to 10^−13 M were chosen. Two identically treated sets of samples were prepared. One set was treated with the test compound alone, whereas to the second set the compound and 10 nM elastase was added followed by a 72 h incubation period at 37° C. and […]. The proliferation was detected using the MTT assay (ATCC). At the end of the incubation period the MTT reagent was added to all samples for 4 h. Lysis of the cells followed by addition of the detergent was done overnight. The formed dye was detected at 570 nm. The proliferation of untreated but otherwise identically handled cells was define as the 100% value.

[3] = system: HT29; assay: as above; assay type: cell-based, human; settings: 72 h
Description: as §1

[4] = system: NCI H292; assay: as above; assay type: cell-based, human; settings: 72 h
Description: as §1

[5] = system: SUM149; assay: as above; assay type: cell-based; settings: 72 h
Description: as §1

[6] = system: 786-O; assay: Cytotoxicity assay (Version 2, automated, AC50) with/without neutrophil elastase; assay type: cell-based, human; settings: Version 2, activity concentration at −50%
Description: as §1
(§2) The cytotoxicity assay (Version 2) was performed as described above. Some changes were applied as the assays were performed in an automated fashion and the IC50 values determination was changed. Here the change in metabolic activity of the cells, in percent, was calculated by normalization of the measured values to the absorbance values of medium containing wells without cells (═−100%) and the absorbance of the DMSO-treated cells (═0%). AC50 values (activity concentration at −50%) were determined by means of a 4 parameter Hill-fit using GeneData Screener software.

[7] = system: HT29; assay: as above; assay type: cell-based, human; settings: Version 2, activity concentration at −50%
Description: as §1, §2

[8] = system: NCI H292; assay: as above; assay type: cell-based, human; settings: Version 2, activity concentration at −50%
Description: as §1, §2

[9] = system: SUM149; assay: as above; assay type: cell-based; settings: Version 2, activity concentration at −50%
Description: as §1, §2

[10] = with (+) 10 nM neutrophil elastase
[11] = without (−) neutrophil elastase
[12] = HT29, with (+) 10 nM neutrophil elastase
[13] = HT29, without (−) neutrophil elastase
[14] = NCI H292, with (+) 10 nM neutrophil elastase
[15] = NCI H292, without (−) neutrophil elastase
[16] = SUM149, with (+) 10 nM neutrophil elastase
[17] = SUM149, without (−) neutrophil elastase
[18] = HT29, with (+) neutrophil elastase
[19] = NCI H292, with (+) neutrophil elastase
[20] = SUM149, with (+) neutrophil elastase

SMILES | IC50 [2, 10] | IC50 [2, 11] | IC50 [3, 12] | IC50 [3, 13] | IC50 [4, 14] | IC50 [4, 15] | IC50 [5, 16] | IC50 [5, 17] | AC50 ([6]; with (+) neutrophil elastase) | AC50 [6, 11] | AC50 [7, 18] | AC50 [7, 13] | AC50 [8, 19] | AC50 [8, 15] | AC50 [9, 20] | AC50 [9, 17] | further results
CCCNC(=O)Nc1cccc(S(=O)(=O)Nc2cccc([C@@H](CC(=O)O)NC(=O)Nc3ccc(NC(=O)NCCOCCOCCOCCC(=O)NCCCC[C@H](NC(=O)CCOCCOCCOCCNC(=O)Nc4ccc(NC(=O)N[C@H](CC(=O)O)c5cccc(NS(=O)(=O)c6cccc(NC(=O)NCCC)c6)c5)cc4)C(=O)NCCOCCOCCOCCC(=O)N[C@@H](CC(=O)O)C(=O)N4CCC[C@H]4C(=O)N[C@H](C(=O)N=S(C)(=O)Cc4cc5cc(c4)OC(C)CCOc4cc(F)ccc4-c4nc(ncc4F)N5)C(C)C)cc3)c2)c1 (relative stereo) [Compound 30] | – | – | – | – | – | – | – | – | – | – | – | – | – | – | – | – | AUC ([1]; 0.5 mg/kg): 50000 to 150000 ng·h/mL; Vd ([1]; 0.5 mg/kg): > 0.1 L/kg; clearance ([1]; 0.5 mg/kg): 0.05 to 0.5 mL/min/kg; half-life ([1]; 0.5 mg/kg): 10 to 20 h
CCCNC(=O)Nc1cccc(S(=O)(=O)Nc2cccc([C@H](CC(=O)O)NC(=O)Nc3ccc(NC(=O)NCCOCCOCCOCCC(=O)N[C@@H](CC(=O)O)C(=O)N4CCC[C@H]4C(=O)N[C@H](C(=O)N=[S@@](C)(=O)Cc4cc5cc(c4)OCCCCOc4cc(F)ccc4-c4nc(ncc4F)N5)C(C)C)cc3)c2)c1 [Compound 14] | ≤ 1 nM | > 100 nM | ≤ 1 nM | > 100 nM | 1.1 to 10 nM | > 100 nM | ≤ 1 nM | > 100 nM | 11 to 100 nM | > 1000 nM | 11 to 100 nM | > 1000 nM | 11 to 100 nM | 100 to 1000 nM | 11 to 100 nM | 100 to 1000 nM | –
CCCNC(=O)Nc1cccc(S(=O)(=O)Nc2cccc([C@@H](CC(=O)O)NC(=O)Nc3ccc(NC(=O)NCCN(C)CCN(C)CCN(C)CC(=O)N[C@@H](CC(N)=O)C(=O)N4CCC[C@H]4C(=O)N[C@H](C(=O)N=[S@@](C)(=O)Cc4cc5cc(c4)OCCCCCNc4cc(ccc4F)-c4nc(ncc4F)N5)C(C)C)cc3)c2)c1 (relative stereo) [Compound 15] | ≤ 1 nM | > 100 nM | ≤ 1 nM | > 100 nM | ≤ 1 nM | 11 to 100 nM | ≤ 1 nM | 11 to 100 nM | 100 to 1000 nM | 100 to 1000 nM | 100 to 1000 nM | 100 to 1000 nM | 11 to 100 nM | 100 to 1000 nM | 100 to 1000 nM | 100 to 1000 nM | –
CCCNC(=O)Nc1cccc(S(=O)(=O)Nc2cccc([C@H](CC(=O)O)NC(=O)Nc3ccc(NC(=O)NCCOCCOCCOCCC(=O)NCCCC[C@H](NC(=O)CCOCCOCCOCCNC(=O)Nc4ccc(NC(=O)N[C@@H](CC(=O)O)c5cccc(NS(=O)(=O)c6cccc(NC(=O)NCCC)c6)c5)cc4)C(=O)NCCOCCOCCOCCC(=O)N[C@@H](CC(=O)O)C(=O)N4CCC[C@H]4C(=O)N[C@H](C(=O)N=[S@@](C)(=O)Cc4cc5cc(c4)OCCCCOc4cc(F)ccc4-c4nc(ncc4F)N5)C(C)C)cc3)c2)c1 [Compound 19] | 1.1 to 10 nM | > 100 nM | ≤ 1 nM | 11 to 100 nM | 1.1 to 10 nM | 11 to 100 nM | ≤ 1 nM | 1.1 to 10 nM | 100 to 1000 nM | 100 to 1000 nM | 100 to 1000 nM | 100 to 1000 nM | 11 to 100 nM | 100 to 1000 nM | 100 to 1000 nM | 100 to 1000 nM | –
CCCNC(=O)Nc1cccc(S(=O)(=O)Nc2cccc([C@@H](CC(=O)O)NC(=O)Nc3ccc(NC(=O)NCCOCCOCCOCCC(=O)N[C@@H](CC(=O)O)C(=O)N4CCC[C@H]4C(=O)N[C@H](C(=O)N=S(C)(=O)Cc4cccc(Nc5ncnc(-c6ccc(F)cc6OC)n5)c4)C(C)C)cc3)c2)c1 (relative stereo) [Compound 1, disodium 1-[(2S)-2-(carboxylatomethyl)-17-{4-[({(1R)-2-carboxylato-1-[3-({3-[(propylcarbamoyl)amino]benzene-1-sulfonyl}amino)phenyl]ethyl}carbamoyl)amino]anilino}-4,17-dioxo-7,10,13-trioxa-3,16-diazaheptadecanan-1-oyl]-L-prolyl-N—[(R*)-[(3-{[4-(4-fluoro-2-methoxyphenyl)-1,3,5-triazin-2-yl]amino}phenyl)methyl](methyl)oxo-lambda^6-sulfanylidene]-L-valinamide] | 11 to 100 nM | 11 to 100 nM | 11 to 100 nM | > 100 nM | 11 to 100 nM | > 100 nM | 11 to 100 nM | > 100 nM | > 1000 nM | > 1000 nM | > 1000 nM | > 1000 nM | 11 to 100 nM | > 1000 nM | 100 to 1000 nM | > 1000 nM | –
CCCNC(=O)Nc1cccc(S(=O)(=O)Nc2cccc([C@@H](CC(=O)O)NC(=O)Nc3ccc(NC(=O)NCCOCCOCCOCCC(=O)N[C@@H](CC(=O)O)C(=O)N4CCC[C@H]4C(=O)N[C@H](C(=O)N=S(C)(=O)Cc4cc5nc(c4)OCCCOc4cc(F)ccc4-c4cc(ncc4F)N5)C(C)C)cc3)c2)c1 (single isomer, unassigned) [Compound 41, disodium 1-{(2S)-2-(carboxylatomethyl)-17-[4-({[(1R)-2-carboxylato-1-{3-[({3-[(propylcarbamoyl)amino]phenyl}sulfonyl)amino]phenyl}ethyl]carbamoyl}amino)anilino]-4,17-dioxo-7,10,13-trioxa-3,16-diazaheptadecan-1-oyl}-L-prolyl-N—[(R*)—{[15,19-difluoro-3,4-dihydro-2H,11H-10,6-(azeno)-12,16-(metheno)-1,5,11,13-benzodioxadiazacyclooctadecin-8-yl]methyl}(methyl)oxido-lambda^6-sulfanylidene]-L-valinamide] | – | – | – | – | – | – | – | – | – | – | – | – | – | – | – | – | AUC ([1]; 2 mg/kg): 1000 to 10000 ng·h/mL; Vd ([1]; 2 mg/kg): > 0.1 L/kg; clearance ([1]; 2 mg/kg): 0.5 to 5 mL/min/kg; half-life ([1]; 2 mg/kg): 10 to 20 h
CCCNC(=O)Nc1cccc(S(=O)(=O)Nc2cccc([C@@H](CC(=O)O)NC(=O)Nc3ccc(NC(=O)NCCOCCOCCOCCC(=O)N[C@@H](CC(=O)O)C(=O)N4CCC[C@H]4C(=O)N[C@H](C(=O)N=S(C)(=O)Cc4ccnc(Nc5cc(-c6ccc(F)cc6OC)c(F)cn5)c4)C(C)C)cc3)c2)c1 (relative stereo) [Compound 2, disodium 1-[(2S)-2-(carboxylatomethyl)-17-{4-[({(1R)-2-carboxylato-1-[3-({3-[(propylcarbamoyl)amino]benzene-1-sulfonyl}amino)phenyl]ethyl}carbamoyl)amino]anilino}-4,17-dioxo-7,10,13-trioxa-3,16-diazaheptadecanan-1-oyl]-L-prolyl-N—[(S*)-[(2-{[5-fluoro-4-(4-fluoro-2-methoxyphenyl)pyridin-2-yl]amino}pyridin-4-yl)methyl](methyl)oxo-lambda^6-sulfanylidene]-L-valinamide] | 11 to 100 nM | > 100 nM | 1.1 to 10 nM | > 100 nM | 11 to 100 nM | > 100 nM | 11 to 100 nM | > 100 nM | 100 to 1000 nM | 100 to 1000 nM | 100 to 1000 nM | 100 to 1000 nM | 100 to 1000 nM | > 1000 nM | 100 to 1000 nM | 100 to 1000 nM | –
CCCNC(=O)Nc1cccc(S(=O)(=O)Nc2cccc([C@@H](CC(=O)O)NC(=O)Nc3ccc(NC(=O)NCCOCCOCCOCCC(=O)NCCCC[C@H](NC(=O)CCOCCOCCOCCNC(=O)Nc4ccc(NC(=O)N[C@H](CC(=O)O)c5cccc(NS(=O)(=O)c6cccc(NC(=O)NCCC)c6)c5)cc4)C(=O)NCCOCCOCCOCCC(=O)N[C@@H](CC(=O)O)C(=O)N4CCC[C@H]4C(=O)N[C@H](C(=O)N=[S@@](C)(=O)Cc4cc5cc(c4)OCCCCOc4cc(F)ccc4-c4nc(ncc4F)N5)C(C)C)cc3)c2)c1 [Compound 18] | 1.1 to 10 nM | > 100 nM | ≤ 1 nM | 11 to 100 nM | 1.1 to 10 nM | > 100 nM | ≤ 1 nM | 11 to 100 nM | 11 to 100 nM | > 1000 nM | 11 to 100 nM | > 1000 nM | 11 to 100 nM | 100 to 1000 nM | ≤ 10 nM | 100 to 1000 nM | –
